According to patent US5565429A, “Peptides derived from trifluoromethylketones” (Adir et Compagnie, priority 1992, dated 1996):
pIC50: −log10 of the molar value.

How the values were obtained:
[1] = molecular target: T1, human sputum leucocyte elastase (Homo sapiens, UniProt P08246); assay: Inhibitory activity for human leucocyte elastase in vitro; format: biochemical; design: It is a glycoprotein of 25 to 30 kDa formed from 218 amino acids; purchased Elastin Products Co; host or cells: human sputum (natural enzyme); conditions: methoxysuccinyl-Ala-Ala-Pro-Val paranitroanilide substrate, 15 min incubation, 37° C., pH 7.8
T1 sequence (P08246 30-247 limits assumed): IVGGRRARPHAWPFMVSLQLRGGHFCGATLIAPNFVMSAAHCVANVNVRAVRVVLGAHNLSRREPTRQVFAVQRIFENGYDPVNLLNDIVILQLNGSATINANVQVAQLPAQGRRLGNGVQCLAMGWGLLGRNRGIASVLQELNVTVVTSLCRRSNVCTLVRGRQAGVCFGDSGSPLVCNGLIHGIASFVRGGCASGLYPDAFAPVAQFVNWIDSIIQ
Method: This activity is measured by following the kinetics of hydrolysis of the substrate which leads to the release of paranitroaniline which absorbs at a wavelength of 410 nm.
Enzyme: Human sputum leucocyte elastase (Elastin Products Co.) solubilized at 1000 uI/ml of distilled water, and frozen in aliquots of 50 μl at -20° C.
Substrate: methoxysuccinyl-L-alanyl-L-alanyl-propyl-valine paranitroanilide (Sigma chimie).
Buffer: Tris 0.1M; NaCl 0.5M; pH=7.8.
10 μl of the product to be tested or of the solvent (concentrated×100)
10 μl of human sputum leucocyte elastase diluted to 1/10th
Stirring and incubation for 15 min at 37° C.
The reaction is started by addition of 10 μl of substrate.
The cell is introduced into the spectro- photometer, and the optical density is recorded as a function of time at 410 nm at 37° C.
The initial rate is measured for each product concentration (or solvent control) studied.
Percentages of inhibition with respect to the solvent control are calculated:
Percentage of inhibition=100×(control rate-rate of the product
The inhibitory concentrations 50 (IC50) are calculated from the percentages of inhibition by simple linear regression.

[2] = molecular target: T1, human sputum leucocyte elastase; assay: In vivo inhibitory activity: model of acute hemorrhagic edema in hamsters; design: It is a glycoprotein of 25 to 30 kDa formed from 218 amino acids; from tissue; host or cells: human sputum (purified preparation); conditions: hamster, 10 μg intratracheally 3 hours before elastase (50 units); hemoglobin in broncho-alveolar washing 3 hours after elastase
Method: In vivo inhibitory activity: model of acute hemorrhagic edema in hamsters
Tracheal instillation in hamsters of a purified preparation of human sputum leucocyte elastase leads to acute hemorrhaging which can be quantified by measuring the concentration of hemoglobin in the broncho-alveolar washing 3 hours after the elastase instillation.
The study is carried out on male hamsters weighing […] (Syrian Golden, n=10 per batch). The animals are anesthetized with pentobarbital at a dose of 40 mg/kg intraperitoneally.
The hamsters are anesthetized and the trachea is exposed surgically. The products to be tested are administered with the aid of a needle directly into the trachea in a volume of 0.1 ml at a dose of 10 μg. Human sputum leucocyte elastase is administered, 3 hours after administration of the product, intratracheally at a dose of 50 units per animal at a volume of 0.2 ml.
The animals are sacrificed with the aid of a lethal dose of pentobarbital 3 hours after instillation of elastase and a broncho-alveolar washing with physiological serum is carried out. The degree of hemorrhaging is quantified by a colorimetric method which makes it possible to quantitatively determine the hemoglobin concentration (Boehringer hemoglobin test combination).
The results are expressed in percentage of inhibition of hemorrhaging.

Row | Compound | pIC50 [1] | Inhibition (%) of hemorrhaging [2]
1 | CC(C)C(NC(=O)[C@@H]1C[C@@H]2CCCC[C@@H]2N1C(=O)[C@@H](NC(=O)c1ccc(S(=O)(=O)NC(=O)Cc2cc(C(C)(C)C)c(O)c(C(C)(C)C)c2)cc1)C(C)C)C(=O)C(F)(F)F (stereo partly drawn) [Example 29, 4-[(3,5-Di-tert-butyl-4-hydroxybenzyl)carbonylaminosulfonyl]benzoyl-(S)-Val-(2S,3aS,7aS)-Phi-(R,S)-Val-CF3] | 7.42 | 63%
2 | CC(C)C(NC(=O)[C@@H]1C2CCC(CC2)N1C(=O)[C@@H](NC(=O)c1ccc(S(=O)(=O)NC(=O)C(C2CC2)C2CC2)cc1)C(C)C)C(=O)C(F)(F)F (stereo partly drawn) [Example 24, 4-[(Dicyclopropylmethyl)carbonylaminosulfonyl]benzoyl-(S)-Val-(S)-Abo-(R,S)-Val-CF3] | 7.60 | 46%
3 | CC(C)C(NC(=O)[C@@H]1C[C@@H]2CCCC[C@@H]2N1C(=O)[C@@H](NC(=O)c1ccc(S(=O)(=O)NC(=O)C(C2CC2)C2CC2)cc1)C(C)C)C(=O)C(F)(F)F (stereo partly drawn) [Example 27, 4-[(Dicyclopropylmethyl)carbonylaminosulfonyl]benzoyl-(S)-Val-(2S,3aS,7aS)-Phi-(R,S)-Val-CF3] | 7.54 | 38%
4 | CC(C)C(NC(=O)c1ccc(S(=O)(=O)NC(=O)Nc2ccc(Cl)cc2)cc1)C(=O)N1C2CCC(CC2)C1C(=O)NC(C(=O)C(F)(F)F)C(C)C [Example 25, 4-(4-Chlorophenylureidosulfonyl)benzoyl-(S)-Val-(S)-Abo-(R,S)-Val-CF3] | 7.47 | 63%
5 | CC(C)C(NC(=O)[C@@H]1[C@@H]2CC[C@@H](C2)N1C(=O)[C@@H](NC(=O)c1ccc(C(=O)NS(=O)(=O)c2ccc(Cl)cc2)cc1)C(C)C)C(=O)C(F)(F)F (stereo partly drawn) [Example 22, 4-(4-Chlorophenylsulfonylaminocarbonyl)benzoyl-(S)-Val-(1S,3S,4R)-Abh-(R,S)-Val-CF3] | 7.72 | 65%
6 | CC(=O)N[C@@H](CSC(C)(C)C)C(=O)NS(=O)(=O)c1ccc(C(=O)N[C@H](C(=O)N2C3CCC(CC3)[C@H]2C(=O)NC(C(=O)C(F)(F)F)C(C)C)C(C)C)cc1 (stereo partly drawn) [Example 18, 4-[S-tert-Butyl-N-acetyl-(S)-cysteinylaminosulfonyl]benzoyl-(S)-Val-(S)-Abo-(R,S)-Val-CF3] | 7.72 | 38%
7 | CC(C)C(NC(=O)[C@@H]1C2CCC(CC2)N1C(=O)[C@@H](NC(=O)c1ccc(C(=O)NS(=O)(=O)c2ccc(Cl)cc2)cc1)C(C)C)C(=O)C(F)(F)F (single isomer, unassigned) [Example 4] | 7.82 | 70%
8 | CC(C)C(NC(=O)c1ccc(S(=O)(=O)NC(=O)C23CC4CC(CC(C4)C2)C3)cc1)C(=O)N1C2CCC(CC2)C1C(=O)NC(C(=O)C(F)(F)F)C(C)C [Example 28, 4-[(Adamant-1-yl)carbonylaminosulfonyl]benzoyl-(S)-Val-(S)-Abo-(R,S)-Val-CF3] | 7.33 | 57%
9 | CCOCC(O)COc1cc(C(=O)NS(=O)(=O)c2ccc(C(=O)N[C@H](C(=O)N3[C@H](C(=O)NC(C(=O)C(F)(F)F)C(C)C)C[C@@H]4CCCC[C@@H]43)C(C)C)cc2)ccc1OC (stereo partly drawn) [Example 35, 4-{[4-Methoxy-3-(3-ethoxy-2-hydroxypropoxy)-benzoyl]aminosulfonyl}benzoyl-(S)-Val-(2S,3aS,7aS)-Phi-(R,S)-Val-CF3] | 7.43 | 47%
10 | CC(C)C(NC(=O)[C@@H]1C[C@@H]2CCCC[C@@H]2N1C(=O)[C@@H](NC(=O)c1ccc(S(=O)(=O)NC(=O)Nc2ccc(Cl)cc2)cc1)C(C)C)C(=O)C(F)(F)F (stereo partly drawn) [Example 26, 4-(4-Chlorophenylureidosulfonyl)benzoyl-(S)-Val-(2S,3aS,7aS)-Phi-(R,S)-Val-CF3] | 7.51 | 64%
11 | CC(C)C(NC(=O)[C@@H]1[C@@H]2CC[C@@H](C2)N1C(=O)[C@@H](NC(=O)c1ccc(S(=O)(=O)NC(=O)c2ccccc2C(=O)N2CCSC2)cc1)C(C)C)C(=O)C(F)(F)F (stereo partly drawn) [Example 23, 4-[2-[(1,3-Thiazolidin-3-yl)carbonyl]benzoylaminosulfonyl]benzoyl-(S)-Val-(lS,3S,4R)-Abh-(R,S)-Val-CF3] | 7.52 | 61%
12 | CC(C)C(NC(=O)[C@@H]1C[C@@H]2CCCC[C@@H]2N1C(=O)[C@@H](NC(=O)c1ccc(S(=O)(=O)NC(=O)c2ccc(CCN3CCC4(CC3)CNC(=O)O4)cc2)cc1)C(C)C)C(=O)C(F)(F)F (stereo partly drawn) [Example 32, 4-{4-[2-(1-Oxa-2-oxo-3,8-diazaspiro[4.5]dec-8-yl)ethyl]benzoylaminosulfonyl}benzoyl-(S)-Val-(2S,3aS,7aS)-Phi-(R,S)-Val-CF3] | 7.38 | 42%
13 | 4-{[3-(3-Azabicyclo[3.3.0]octane)ureido]sulpfonyl}benzoyl-(S)-Val-(S)-Abo-(R,S)-Val-CF3 [Example 2] | 7.60 | 57%
14 | CC(C)C(NC(=O)[C@@H]1C[C@@H]2CCCC[C@@H]2N1C(=O)[C@H](CCCCNC(=O)Cc1cc(C(C)(C)C)c(O)c(C(C)(C)C)c1)NC(=O)c1ccc(C(=O)NS(=O)(=O)c2ccc(Cl)cc2)cc1)C(=O)C(F)(F)F (stereo partly drawn) [Example 41, 4-(4-Chlorophenylsulfonylaminocarbonyl)benzoyl-[N-(3,5-di-tert-butyl-4-hydroxyphenyl)acetyl]-(S)-Lys-(2S,3aS,7aS)-Phi-(R,S)-Val-CF3] | 7.15 | 41%
